Test results published in patent publication US20250120963A1, “METHODS AND COMPOSITIONS FOR THE TREATMENT OF THROMBOCYTOPENIA” (THE CHILDREN'S MEDICAL CENTER CORPORATION, priority 2023, published 2025).

Legend:
[1] = test system: mice; conditions: 50 mg/kg daily i.p.; Niraparib 10 days, Olaparib 3 days
Experimental: Mice were treated with 50 mg/kg Niraparib or Olaparib daily (i.p.) for 10 or 3 days, respectively, and platelet counts measured by SYSMEX™.
FIG. 21A) Platelet count versus time. FIG. 21B) RBC count versus time. FIG. 21C) WBC count versus time.
8,9 Mice were treated with 50 mg/kg of Niraparib and Olaparib […].

[2] = test system: C57B1/6 mice; assay: Olaparib 50 mg/kg i.p. 5 consecutive days each week in C57B1/6 mice, 2-week and 4-week experiments; format: in vivo
Experimental: C57B1/6 mice dosed with 50 mg/kg Olaparib intraperitoneally for 5 days consecutive days each week. Dark gray=vehicle, light gray=Olaparib.
Olaparib treatment increases platelet count and alters megakaryocyte ploidy in mice. C57B1/6 mice were dosed with 50 mg/kg Olaparib intraperitoneally for 5 days consecutive days each week.

[3] = test system: PARylation in megakaryocytes; assay: PARylation western blot in megakaryocytes subjected to hydrogen peroxide with or without Olaparib; format: cell-based, murine; conditions: 10 mM H2O2; Olaparib 30 μM or 3 μM
Experimental: (§1) Lineage depleted murine bone marrow was cultured with TPO for 4 days. Gradient-isolated megakaryocytes subjected to 10 mM of hydrogen peroxide (H2O2) in the presence or absence of Olaparib (30 μM or 3 μM). Cells were subsequently lysed in RIPA buffer containing protease inhibitor cocktail. A western blot to detect PARylation was performed. Equal loading was confirmed using an anti-GAPDH antibody. Impage shown is a representative of three experiments.
as §1, with “megakaryocytes were” for “megakaryocytes”, “olaparib” for “Olaparib”, “performed (FIG. 18).” for “performed.”, “antibody.” for “antibody. Impage shown is a representative of three experiments.”

[4] = test system: lineage depleted murine bone marrow; assay: In vitro megakaryocyte differentiation: lineage depleted bone marrow cultured with TPO for 4 days with PARPi (VWF-GFP signal); format: cell-based; conditions: for megakaryocyte differentiation / megakaryopoiesis in vitro: TPO, 4 days, PARPi vs vehicle
Experimental: Lineage depleted bone marrow was cultured with TPO for 4 days in the presence of PARPi or vehicle controls. FIG. 14A) representative images of VWF-GFP signal. FIG. 14B) Mean normalized area of GFP signal (n=3). Error bars±SEM.Circles=Olaparib, squares=Niraparib, triangles=Rucaparib.
Lineage depleted bone marrow was cultured with TPO for 4 days in the presence of PARPi or vehicle controls (FIG. 14A-14B).
Lineage depleted murine bone marrow was cultured with TPO for 4 days in the presence of PARPi or vehicle controls (FIG. 14A-14B).

[5] = test system: mice
Experimental: Mice were given Niraparib (25 mg/kg, intraperitoneal) or vehicle control for 11 days. FIG. 5A) Platelet counts and immature platelet fraction were measured on a SYSMEX™ hematology analyzer. Line graph: Black circles=Vehicle, gray squares=Niraparib. Bar charts: black=Vehicle, gray=Niraparib. FIG. 5B) MKs and MK-biased HSC counts. Dark gray=DMSO (vehicle), light gray=Niraparib. FIG. 5C) expression of γH2AX. Left bar=control, right bar=Niraparib, and FIG. 5D) MK ploidy was determined by flow cytometry (see FIGS. 9A-9C). n=4-5 mice per group. Gray=Niraparib, black=Vehicle.
Mice were treated with a subtherapeutic dosage of the PARP inhibitor Niraparib (25 mg/kg, intraperitoneal) or saline control for 11 days. The dosing schedule was as follows: 5 consecutive days of Niraparib treatment followed by 2 days of drug holiday (no injection), then 4 more consecutive days of Niraparib treatment. Mice were sacrificed on day 11. Platelet counts were taken on days 0 (pre-treatment), 2, 7, 9, and 11. Cohorts of mice were sacrificed on days 3 and 11 for quantification of bone MK and progenitor populations. […] To.
Niraparib treatment were measured.

[6] = test system: platelets; conditions: platelets drawn on D11, 25 mg/kg; stimulated with ADP, TRAP or CRP; listed as niraparib
Experimental: Platelets were drawn from mice at sacrifice on D11 (see FIG. 6), stimulated with agonists as indicated, and the MFI of activated αIIbβ3 measured by flow cytometry. Black markers=saline, gray markers=Niraparib, 25 mg/kg.
Platelets were drawn from mice at sacrifice on D11, stimulated with agonists as indicated, and the MFI of activated αIIbβ3 measured by flow cytometry. Black=saline, gray=Niraparib (25 mg/kg).
(§2) While MK ploidy is not directly causative of platelet production, higher ploidy MKs are associated with increased platelet production and ploidy status is indicative of more terminal MK maturation. To look further at live MKs, 2-photon intravital microscopy (2PIVM) was performed in the calvaria of vWF-GFP reporter mice (MKs and platelets are GFP+) treated with 25 mg/kg Niraparib or vehicle control DMSO for 7 days. Mice were anesthetized and a window in the calvaria was made to view the exposed bone marrow.
Platelets were drawn from mice at sacrifice on D11, stimulated with agonists as indicated, and the MFI of activated αIIbβ3 measured by flow cytometry.

[7] = 0.03 μM vs vehicle
[8] = test system: MKs in calvaria bone marrow of vWF-GFP reporter mice; conditions: 25 mg/kg, 7 days, vs DMSO
Experimental: as §2

[9] = test system: patients; conditions: ITP patients; cited from earlier work

O=C(c1cc(Cc2n[nH]c(=O)c3ccccc23)ccc1F)N1CCN(C(=O)C2CC2)CC1 [Olaparib, 4-[(3-[(4-cyclopropylcarbonyl)piperazin-4-yl]carbonyl)-4-fluorophenyl]methyl (2H) phthalazin-1-one]
platelet counts at 50 mg/kg [1]: severe thrombocytopenia
platelet counts after day 6 ([2]; 2-week and 4-week experiments): returned to approximately baseline
megakaryocyte ploidy shift after 2-weeks ([2]; 2 weeks): fewer 8N and more 32N cells
number of megakaryocytes (CD41+CD42+ flow cytometry of bone marrow) at 2-weeks ([2]; 2 weeks): trend to fewer megakaryocytes
megakaryocyte ploidy shift after 4-weeks ([2]; 4 weeks): more 8N and fewer 16N cells
number of megakaryocytes (CD41+CD42+ flow cytometry of bone marrow) at 4-weeks ([2]; 4 weeks): trend to fewer megakaryocytes
platelet count ([2]; increase found at day 6, 2-week and 4-week experiments): surprising increase in platelet count
megakaryocyte PARylation [3]: reverses PARylation pattern
megakaryocyte differentiation / megakaryopoiesis in vitro [4]: reduce megakaryocyte differentiation

NC(=O)c1cccc2cn(-c3ccc([C@@H]4CCCNC4)cc3)nc12 [Niraparib, 2-{4-[(3S)-Piperidin-3-yl]phenyl}-2H-indazole-7-carboxamide]
number of MK-committed HSCs positive for γH2AX ([5]; 25 mg/kg i.p.): significantly increased
γH2AX-positive MKPs ([5]; 25 mg/kg i.p.): trend to more
2N MKs ([5]; 25 mg/kg i.p., 11 days): almost no 2N MKs
number of 32N MKs ([5]; 25 mg/kg i.p., 11 days): large increase
MK number / MK counts ([5]; 25 mg/kg i.p., bone marrow, flow cytometry, listed as niraparib): increases
MK-committed HSCs (CD41+LT-HSCs) counts ([5]; 25 mg/kg i.p., days preceding the increase in platelet counts): significant increase
immature platelet fraction ([5]; 25 mg/kg i.p., from day 7, vs saline): significant increase
platelets, percent of normal levels ([5]; Niraparib treated mice): > 150 % of normal levels
MKs in day 3 HSPC/myeloid panel ([5]; day 3, committed progenitors and classical hematopoiesis pathways): Significant increase in MKs
day 11 HSPC/myeloid panel: HSC status ([5]; day 11): HSC exhaustion
megakaryopoiesis ([5]; lower doses of niraparib): increase in megakaryopoiesis
time to significant increase in mouse platelet count ([5]; lower doses of niraparib, from initial administration): ≤ 7 days
DNA damage accumulation in megakaryocytes, γH2AX immunofluorescence on long bones ([5]; niraparib group): Increased DNA damage accumulation
platelet function / activation [6]: does not affect platelet function
ploidy in vitro [7]: increases ploidy
megakaryocyte differentiation / megakaryopoiesis in vitro [4]: reduce megakaryocyte differentiation
megakaryocyte maturation in vitro at higher doses ([4]; lineage depleted bone marrow cells from WT mice, higher doses): decreased maturation
megakaryocyte maturation in vitro at lower doses ([4]; lineage depleted bone marrow cells from WT mice, lower doses): increased megakaryocyte maturation
MK number in bone marrow by 2-photon intravital microscopy [8]: increased MK number

Rituximab: treatment for ITP patients, which can take 4-6 weeks for peak results
time for peak results [9]: 4-6 weeks
